# From ChEMBL document CHEMBL4190237, “Recent developments in biological activities of indanones” (Eur J Med Chem, 2017)
# Assays:
# [1] = tested on: HeLa; assay: Cytotoxicity against human HeLa cells; assay type: functional, cell-based
# [2] = tested on: K562; assay: Cytotoxicity against human K562 cells; assay type: functional, cell-based
# [3] = target: Acetylcholinesterase (Electrophorus electricus, UniProt O42275); assay: Inhibition of electric eel AChE using acetylthiocholine iodide as substrate after 1 min by Ellman's method
# [4] = tested on: Bovine viral diarrhea virus 1; assay: Antiviral activity against BVDV infected in MDBK cells assessed as protection against virus-induced cytopathic effect after 3 days by MTS/PMS assay; assay type: functional, organism-based; conditions: Bovine viral diarrhea virus isolates and strains, 72 h
# [5] = tested on: Jurkat; assay: Cytotoxicity against human Jurkat cells assessed as cell growth inhibition by MTT assay; assay type: functional, cell-based
# [6] = tested on: Candida albicans; assay: Antifungal activity against Candida albicans MTCC 227 assessed as zone of inhibition at 50 mg/ml after 24 hrs by agar disc-diffusion method; assay type: functional; conditions: MTCC 227, 24 h, read-out: IZ
# [7] = tested on: Klebsiella pneumoniae; assay: Antibacterial activity against Klebsiella pneumoniae assessed as growth inhibition; assay type: functional
# Acetylcholinesterase, sequence (O42275 whole entry): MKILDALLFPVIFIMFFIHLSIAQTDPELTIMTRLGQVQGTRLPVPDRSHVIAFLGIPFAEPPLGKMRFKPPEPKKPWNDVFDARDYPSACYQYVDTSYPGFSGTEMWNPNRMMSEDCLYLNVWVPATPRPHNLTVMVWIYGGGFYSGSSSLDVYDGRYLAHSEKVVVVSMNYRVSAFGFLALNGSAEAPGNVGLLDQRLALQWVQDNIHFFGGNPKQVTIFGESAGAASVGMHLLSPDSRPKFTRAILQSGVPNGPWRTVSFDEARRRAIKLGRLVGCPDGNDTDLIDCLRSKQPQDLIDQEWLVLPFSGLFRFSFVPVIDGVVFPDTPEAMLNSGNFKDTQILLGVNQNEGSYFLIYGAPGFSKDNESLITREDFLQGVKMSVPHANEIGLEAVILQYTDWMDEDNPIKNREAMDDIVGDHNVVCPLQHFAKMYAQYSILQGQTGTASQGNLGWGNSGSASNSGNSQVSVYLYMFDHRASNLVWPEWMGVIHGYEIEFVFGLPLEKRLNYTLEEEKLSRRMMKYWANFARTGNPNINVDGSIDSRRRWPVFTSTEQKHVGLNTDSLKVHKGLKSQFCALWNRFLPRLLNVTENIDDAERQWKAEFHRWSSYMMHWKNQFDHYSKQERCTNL
smiles,measurement,setting,value
COc1cc(OC)c2c(c1)C(=O)CC2c1ccc(Br)cc1 (configuration not stated),IC50,[1],60 µM
same,IC50,[2],10 µM
NNc1ccc(C(=O)NCCCCCOc2ccc3c(c2)CC(CN2CCC(Cc4ccccc4)CC2)C3=O)cn1 (configuration not stated),IC50,[3],1090 nM
COc1cc2c(cc1OC)/C(=N/NC(N)=S)CC2,EC50,[4],5.35 µM
COc1cc2c(c(N)c1OC)C/C(=C\c1cc(C)c(O)c(C)c1)C2=O,IC50,[5],1 nM
COc1cccc(-c2c(C#N)c(N)n(/N=C3\CCc4cc(OC)c(OC)cc43)c(=O)c2C#N)c1,zone of inhibition at 50000 µg/mL,[6],23 mm
COc1cc2c(cc1OC)C(=O)/C(=C/c1cccc(/C=C/c3ccc4ccc(Cl)cc4n3)c1)C2,growth inhibition (GI),[7],11.23%
